# Patent US12128035B2, “Activating pyruvate kinase R” (Novo Nordisk Health Care AG, priority 2021, dated 2024)
# “Also recorded” adds a separate entry of the source.
# How the values were obtained:
# [1] = system: p50 (PO2 at 50% hemoglobin saturation); test: Phase 1 SAD/MAD: p50 (Hemox Analyzer) in healthy volunteers; assay type: in vivo, human; conditions: for Mean p50 Value: 24 hours after first dose on day 14; for Mean Absolute Change in p50 / Mean Percentage Change in p50: 24 hours after first dose on day 14, relative to baseline; for median reduction in p50: all dose levels; for Mean Absolute Change in p50 (mmHg): 24 hours after dose, relative to baseline
# Experimental: In the SAD cohorts, the subjects' p50 (PO2 at 50% hemoglobin saturation) were determined 24-hours post-dose. p50 measured 24 hours after a single dose of Compound 1 were reduced at all dose levels tested (median reduction ranged from ˜3-5 mmHg). Table 17 reports the mean absolute change in p50, relative to baseline, measured 24 hours after a single dose of Compound 1 (200 mg, 400 mg, 700 mg, or 1000 mg) or placebo in healthy volunteers.
# In the MAD cohorts, the subjects' p50 (PO2 at 50% hemoglobin saturation) were determined on day 14. p50 values measured after 14 days of twice daily dosing were reduced at all dose levels tested (median reduction ranged from ˜3-5 mmHg). Table 19 reports the mean p50 value and the mean absolute change and percentage change in p50, relative to baseline, measured 24 hours after the first dose given on day 14 in healthy volunteers who received daily doses of Compound 1 (100 mg BID, 200 mg BID, 300 mg BID, or 400 mg QD) or placebo for 14 days.
# The oxygen affinity of RBCs was measured in patient blood using a Hemox Analyzer (TCS Scientific Corp.), an automatic system for the recording of blood oxygen equilibrium curves and related phenomena. The Hemox Analyzer was used according to standard methods to determine the hemoglobin-oxygen dissociation curves for whole blood samples, numerically characterized by the p50, the partial pressure of oxygen at which hemoglobin is 50% saturated. The operating principle of the Hemox-Analyzer is based on dual-wavelength spectrophotometry for the measurement of the optical properties of hemoglobin and a Clark electrode for measuring the oxygen partial pressure in millimeters of mercury. Whole blood is diluted and placed into a special plastic cuvette that is maintained at 37° C. To perform the analysis, a beam of polychromatic light is passed through the cuvette and is made monochromatic prior to reaching the photomultiplier detectors. In the case of hemoglobin, the wavelength of maximum absorbance is the measuring wavelength (560 nm), while the reference wavelength is at the isosbestic point at (570 nm). The absorbance at the isosbestic point remains unchanged during the deoxygenation process of the hemoglobin, however the measuring wavelength (560 nm) undergoes a drastic change in absorbance. This change is detected by the electronic circuitry and is plotted as the log/ratio change between the two wavelengths. The log/ratio measurement at 560 nm and 570 nm is utilized to measure the optical absorbance change during the deoxygenation of the hemoglobin. Simultaneously with the measurement of the hemoglobin absorbance, the oxygen concentration is directly measured in the sample using a Clark electrode. Under normal atmospheric conditions of 760 mm of mercury the oxygen concentration (i.e., the oxygen partial pressure) is 149 mm of mercury. This saturation point is used for full-scale calibration of the computer prior to starting the plotting of the curve. When the oxygen is being replaced by an inert gas (nitrogen) in a continuous procedure, hemoglobin becomes deoxygenated.
# aromatase = target: T1, aromatase (Homo sapiens, UniProt P11511); test: Aromatase inhibition; conditions: clinical trials and non-clinical testing
# T1 construct: endogenous in cells; host or cells: H295R adreno-cortical carcinoma cells; healthy human subjects in vivo
# T1 sequence (P11511 1-503): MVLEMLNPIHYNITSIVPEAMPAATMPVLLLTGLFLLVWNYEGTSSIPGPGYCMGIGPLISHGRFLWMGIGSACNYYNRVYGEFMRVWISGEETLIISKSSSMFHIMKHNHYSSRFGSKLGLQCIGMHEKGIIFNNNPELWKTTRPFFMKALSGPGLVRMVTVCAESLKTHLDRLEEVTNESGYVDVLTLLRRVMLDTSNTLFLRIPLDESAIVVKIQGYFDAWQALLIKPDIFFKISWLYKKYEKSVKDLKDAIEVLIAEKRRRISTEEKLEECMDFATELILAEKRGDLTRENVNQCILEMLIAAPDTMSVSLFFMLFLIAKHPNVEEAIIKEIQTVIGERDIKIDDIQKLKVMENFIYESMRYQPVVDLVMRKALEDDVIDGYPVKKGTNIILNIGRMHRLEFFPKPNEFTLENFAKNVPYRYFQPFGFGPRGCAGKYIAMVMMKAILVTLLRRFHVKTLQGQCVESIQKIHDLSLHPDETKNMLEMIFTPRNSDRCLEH
# Excerpt: Aromatase is an enzyme encoded by the CYP19A1 gene. It is located in the endoplasmic reticulum of estrogen-producing cells and catalyzes the rate-limiting step in the conversion of androgens to estrogens in many tissues. Aromatase is a cytochrome P-450 hemoprotein-containing enzyme complex that catalyzes the rate-limiting step in the production of estrogens, i.e. the conversion of androstenedione and testosterone, via three hydroxylation steps, to estrone and estradiol. Aromatase activity is present in many tissues, such as the ovaries, adipose tissue, muscle, liver, breast tissue, and in malignant breast tumors. The main sources of circulating estrogens are the ovaries in premenopausal women and adipose tissue in post-menopausal women. Aromatase catalyzes the conversion of androgens to estrone (E1), which is further converted to the potent estrogen estradiol (E2) by the enzyme 17β-HSD type 1 in the granulosa cell.
# Aromatase is a key enzyme in the steroidogenic pathway that catalyzes the conversion of androgens, including testosterone, into estradiol. […]
# Effects on circulating levels of estradiol and testosterone in male and female healthy subjects receiving Compound 1 or placebo for a treatment period of 14 days were evaluated. […] Testosterone and estradiol levels were assessed prior to dosing (baseline), and then on days 8, 14 and 17.
compound,measurement,setting,value
"O=C([C@H](CO)c1ccccc1)N1CC2=C(C1)CN(S(=O)(=O)c1cnc3c(c1)OCCO3)C2 (single isomer, unassigned) [Compound 1]",Mean p50 Value,[1]; HV 100 mg BID,22.96 mmHg
same,Mean Absolute Change in p50,[1]; HV 100 mg BID,−3.26 mmHg
same,Mean Percentage Change in p50,[1]; HV 100 mg BID,−12.42%
same,Mean p50 Value,[1]; HV 200 mg BID,22.33 mmHg
same,Mean Absolute Change in p50,[1]; HV 200 mg BID,−5.34 mmHg
same,Mean Percentage Change in p50,[1]; HV 200 mg BID,−19.33%
same,Mean p50 Value,[1]; HV 300 mg BID,21.69 mmHg
same,Mean Absolute Change in p50,[1]; HV 300 mg BID,−4.24 mmHg
same,Mean Percentage Change in p50,[1]; HV 300 mg BID,−16.05%
same,Mean p50 Value,[1]; HV 400 mg QD,21.75 mmHg
same,Mean Absolute Change in p50,[1]; HV 400 mg QD,−4.09 mmHg
same,Mean Percentage Change in p50,[1]; HV 400 mg QD,−15.76%
same,median reduction in p50,"[1]; HV MAD cohorts, after 14 days of dosing",3-5 mmHg
same,"Mean Maximum Percent Change from Baseline, p50","[1]; HV MAD, all doses and timepoints (N = 36)",−15.9%
same,median reduction in p50,"[1]; HV SAD, 24 hours after a single dose",3-5 mmHg
same,"Mean Maximum Percent Change from Baseline, p50","[1]; HV SAD, all doses and timepoints (N = 24)",−15.6%
same,Mean Absolute Change in p50 (mmHg),[1]; HV single 200 mg,−2.91 mmHg
same,Mean Absolute Change in p50 (mmHg),[1]; HV single 400 mg,−3.41 mmHg
same,Mean Absolute Change in p50 (mmHg),[1]; HV single 700 mg,−4.85 mmHg
same,Mean Absolute Change in p50 (mmHg),[1]; HV single 1000 mg,−5.05 mmHg
same,aromatase inhibition,aromatase,has not shown evidence of inhibition of aromatase; also recorded: absence of aromatase inhibition
